Assays:
human semen/spermatozoa [1] = assay: Static oxidation-reduction potential (sORP) of spermatozoa incubated with/without CO, MiOXSYS (Example 1); format: cell-based; conditions: two-compartment capsule, 15 mg Mo-CORM, 90 minutes at 25-35° C.; vs samples not contacted with CO (woCO=1); FIG. 10
Method: (§1) In this example, the capsule (18-22 mm in length and 6-8 mm diameter) loaded with 15 mg of CO-releasing molecules (Mo-CORM) and 150 μl of an aqueous FeCl3 solution (583.3 mg/ml) was used for the preservation of a 0.7 mL to about 2.9 mL sample in a standard 15 mL Falcon tube.
(§2) Between 1.46 mL and 5.7 mL human semen/spermatozoa were collected from healthy males of between 25 and 50 years of age in 100 mL sample vials on site. Samples were then divided into two equal fractions each for subsequent incubation with CO (wCO) and without CO (woCO). In order to estimate the spermatozoa concentration in the samples and to establish an initial baseline for each sample, a routine spermiogram was performed before samples were transferred to gas-tight 15 mL Falcon tubes. Samples were incubated at 25-35° C. for 90 minutes with and without an activated capsule system in a closed container. During this incubation period liquefaction took place naturally. The samples were then analyzed for total motility, progressive motility, static oxidation-reduction potential, and for DNA fragmentation.
A Male Infertility Oxidative System (MiOXSYS, Englewood, CO) was used to determine static oxidation-reduction potential (sORP) levels. 30 μL of the sperm samples were transferred to the sample application port on a MiOXSYS sensor and analyzed for 2 minutes. […]

human semen/spermatozoa [2] = assay: DNA fragmentation of spermatozoa incubated with/without CO, Halo Sperm G2 Kit (Example 1); format: cell-based; conditions: two-compartment capsule, 15 mg Mo-CORM, 90 minutes at 25-35° C.; vs samples not contacted with CO (woCO=1); FIG. 11
Method: as §1
as §2, with “During this incubation period liquefaction took place naturally.” left out
To determine DNA fragmentation a count-based microscopy assay was performed. For this spermatozoa samples were diluted using MHM-C (Multipurpose Handling Medium-Complete, FujiFilm, IrvineScientific) to a maximum of 20×E6 spermatozoa per mL and analyzed using a Halo Sperm G2 Kit (Halotech, Madrid, Spain). […] At least 300 spermatozoa were then analyzed using a bright field microscope. […]

human semen/spermatozoa [3] = assay: Progressive motility of spermatozoa incubated with/without CO, CASA (Example 1); format: cell-based; conditions: two-compartment capsule, 15 mg Mo-CORM, 90 minutes; vs spermatozoa not contacted with CO
Method: as §1
as §2, with “Samples were incubated at 25-35° C. for 90 minutes with and without an activated capsule system in a closed container. During this incubation period liquefaction took place naturally.” left out
Total motility, progressive motility and concentration of the samples were assessed using a CEROS II (Hamilton Thorne, Beverly, MA) computer assisted sperm analysis (CASA) system. 6 μL of a sperm sample diluted 1:1 with Multipurpose Handling Medium-Complete (MHM-C, FujiFilm/IrvineScientific, Santa Ana, CA) was measured and the concentration and level of mobility (total and progressive motility) was assessed.

Human sperm = assay: Static oxidation-reduction potential (sORP) of sperm treated with single-chamber receptacles, MiOXSYS (Example 2); format: cell-based; conditions: vs untreated, results expressed in mV/10^6 sperm/mL, FIG. 12
Method: Example 2 illustrates the improvement of spermatozoan viability parameters (namely, oxidation-reduction potential) in response to different carbon monoxide (CO) incubation durations. Sperm form the same subject was either treated with carbon monoxide or left untreated, as “untreated” control. Treatments with CO varied in duration (60, 90, 180, or 270 min).
In this example, sperm samples were treated with either one, three, or six receptacles/capsules, each loaded with 5 mg Mo-CORM (corresponds to 0.44 mL CO) for 60 to 270 mins, or left untreated for the same amount of time.
Human sperm was collected from healthy volunteers in 100 mL specimen containers. Afterwards, the ejaculate was split into equal parts and filled into 15 mL gas tight falcon tubes, with one of the samples being exposed to one or more activated receptacles/capsules. Then, both samples were analyzed for static oxidation-reduction potential (sORP) via MiOXSYS after a predetermined time.
An oxidative male infertility measuring System (MiOXSYS, Englewood, CO) was used to determine static oxidation-reduction potential (sORP) levels following manufacturer's specifications. 30 μL of sample were transferred to the sample application port onto a MiOXSYS sensor and analyzed for 2 minutes. The results were expressed in milli Volt (mV) and normalized to the seminal sperm concentration (mV/10^6 sperm/mL).

[4] = Carbon monoxide release from the receptacle after combining main substance and activation substance; format: physicochemical
Method: Carbon monoxide (CO) release was 1.30 mL, 0.95 mL, 0.44 mL, and 0.23 mL corresponding to 15 mg, 10 mg, 5 mg, and 2.5 mg of the main substance 42 (“Mo-CORM”), respectively.
Carbon monoxide (CO) release ranged from 0.95 mL to 0.34 mL corresponding to 50 μL to 10 μL of the activation substance 44 (“FeCl”), respectively.

| Molecule | Relative oxidation-reduction-potential (sORP wCO / sORP woCO) (human semen/spermatozoa [1]) | Relative DNA fragmentation (wCO / woCO) (human semen/spermatozoa [2]) | progressive motility of spermatozoa (human semen/spermatozoa [3]) | oxidation-reduction potential (sORP) of treated gametes (Human sperm; subject 38_7, contacted with carbon monoxide for 60 min) | oxidation-reduction potential (sORP) of treated gametes (Human sperm; subject 42_1, contacted with carbon monoxide for 90 min) | released amount/volume of carbon monoxide (CO) from the receptacle ([4]; 2.5 mg of the main substance (Mo-CORM), FIG. 9A) [mL] | released amount/volume of carbon monoxide (CO) from the receptacle ([4]; 5 mg of the main substance (Mo-CORM), FIG. 9A) [mL] | released amount/volume of carbon monoxide (CO) from the receptacle ([4]; 10 mg of the main substance (Mo-CORM), FIG. 9A) [mL] | released amount/volume of carbon monoxide (CO) from the receptacle ([4]; 15 mg of the main substance (Mo-CORM), FIG. 9A) [mL] | released amount/volume of carbon monoxide (CO) from the receptacle ([4]; 10 μL of the activation substance (FeCl), FIG. 9B) [mL] | released amount/volume of carbon monoxide (CO) from the receptacle ([4]; 50 μL of the activation substance (FeCl), FIG. 9B) [mL] |
| --- | --- | --- | --- | --- | --- | --- | --- | --- | --- | --- | --- |
| [C-]#[O+] [CO, carbon monoxide] | trend to be lower | reduced | improvement | drastic reduction | drastic reduction | – | – | – | – | – | – |
| trisodiumtricarbonyl-[tris(isocyanoethylacetate)]molybdenum [Mo-CORM] | – | – | – | – | – | 0.23 | 0.44 | 0.95 | 1.30 | 0.34 | 0.95 |

Source: patent US20260069629A1, “RECEPTACLE, DEVICE FOR RELEASING CARBON MONOXIDE, TREATMENT SYSTEM, SET FOR TREATING LIVING CELLS, METHOD OF TREATING A MAMMAL, AND CARBON MONOXIDE” (Julius-Maximilians-Universität Würzburg, in Vertretung des …, priority 2022, published 2026)
